Measured values taken from US10130590B2, “Methods of treating cancer with atovaquone-related compounds” (DANA-FARBER CANCER INSTITUTE, INC., priority 2013, dated 2018).
“Also recorded” adds a separate entry of the source.

Assays:
[1] = clinical use; cited from earlier work
[2] = system: non-malignant peripheral blood mononuclear cells (PBMC); experiment: Cell viability (Cell Titer Glo), PBMC; format: cell-based; details: 72 hours, healthy donors
Procedure: Mouse embryonic fibroblasts (MEFs) were cultured in DMEM+10% FBS. TSC2-null (see, Zhang et al. J Clin Invest. 2003; 112(8):1223-1233) and REDD1-null (see, Sofer et al. Mol. Cell. Biol. July 2005 vol. 25 no. 14 5834-5845) MEFs, along with MEFs from the littermate controls, were kind gifts from Dr. John Blenis and Dr. Leif Ellisen, respectively. HEL (see, Iwama et al. Mol. Cell. Biol. June 1999 vol. 19 no. 6 3940-3950) was a kind gift of Dr. Daniel G. Tenen and grown in RPMI-1640+10% FBS. OCI-AML2 and OCI-AML3 (see, Grunberger et al. Blood Dec. 1, 2003 vol. 102 no. 12 4153-4158), and MOLM-13 (German Collection of Microorganisms and Cell Cultures (DSMZ, Braunschweig, Germany)) were kind gifts of Dr. James D. Griffin and grown in RPMI-1640+10% FBS. MM.1S (ATCC) was a kind gift of Dr. Kenneth C. Anderson and grown in RPMI-1640+10% FBS. SET2 (see, Koppikar et al. Nature 489, 155-159 (6 Sep. 2012)) was a kind gift of Dr. Ross L. Levine and grown in RPMI-1640+10% FBS. HL60 (ATCC) was a kind gift of Dr. James D. Griffin and grown in RPMI-1640+10% FBS. […] Molecular Pharmacology 78(5):903-908; and Walker S R, et al. (2009) Reciprocal effects of STAT5 and STAT3 in breast cancer. Molecular Cancer Research: MCR 7(6):966-976). Peripheral blood mononuclear cells (PBMCs) were isolated from healthy donors by Ficoll density gradient centrifugation and maintained in RPMI-1640+10% FBS. […]

HEL cells = experiment: PI cell cycle analysis, HEL; format: cell-based; details: 25 μM, 24 hours
Procedure: Annexin V/PI staining was performed using Annexin V:FITC Apoptosis Detection Kit I (BD Biosciences). Staining for cell cycle analysis was performed as previously described (267). Staining for cell-surface receptors was performed in 50 μl PBS+2% FBS with 2 μl antibody to IL6R (BioLegend #352803) or 5 μl antibody to gp130 (BD Biosciences #555757) for 20 minutes on ice in the dark. Cells were washed twice, then resuspended in 300 μl of the same buffer. Samples were analyzed on a BD FACSCanto II machine. Transfection and siRNA Cells were reverse-transfected using Lipofectamine RNAiMAX (Invitrogen); the culture medium was changed 24 hours later. Control siRNA (D-001210-02) and REDD1 siRNA (M-010855-01) were from Thermo Scientific Dharmacon. Additionally, it was hypothesized atovaquone inhibits proliferation by disrupting cell cycle progression. […] In summary, atovaquone inhibits constitutive STAT3 activation and target gene expression in cancer cells, and reduces their survival and proliferation.

Structure (SMILES): O=C1C(O)=C([C@H]2CC[C@H](c3ccc(Cl)cc3)CC2)C(=O)c2ccccc21 [atovaquone, trans-2-[4-(4-chlorophenyl)cyclohexyl]-3-hydroxy-1,4-naphthalenedione]
- side effects / tolerability [1]: side effects are minimal; also recorded: extremely well-tolerated in humans
- viability of PBMC [2]: relatively preserved
- population of cells in G2/M (HEL cells): decreased the population of cells in G2/M
- proportion of cells with lower DNA content (HEL cells): increased the proportion of cells with lower DNA content
